Experimental data taken from patent US12077537B2 (Gilead Sciences, Inc., priority 2020, dated 2024).
pEC50: −log10 of the molar value.

tested on: HIV-IIIb; test: Antiviral assay in MT4 cells; type: cell-based; settings: Human immunodeficiency virus 1, MT4, 120 h; MT-4 cells mixed with HIV-IIIb at m.o.i. 0.003; 5 days at 37° C.; CellTiter-Glo luminescence; 50% decrease in signal, a measure of HIV-1 replication
Procedure: Antiviral Assay in MT4 Cells For the antiviral assay, 40 μL of a concentration required to achieve a final effective 1× test concentration of 3-fold serially diluted compound in culture medium with 10% FBS was added to each well of a 384-well plate (10 concentrations) in quadruplicate. MT-4 cells were next mixed with HIV-IIIb at an m.o.i of 0.003 for 1 hour, after which time 35 μL of virus/cell mixture (2000 cells) was immediately added to each well containing 40 μL of diluted compound. The plates were then incubated at 37° C. for 5 days. After 5 days of incubation, 25 μl of 2× concentrated CellTiter-Glom Reagent (catalog #G7571, Promega Biosciences, Inc., Madison, WI) was added to each well containing MT-4 cells. Cell lysis was carried out by incubating at room temperature for 10 min and then chemiluminescence was read.

**Q.** With `Cc1[nH]c2ccccc2c1CC(=O)N[C@@H](Cc1ccccc1)c1nc2ccccc2n1-c1ccccc1` [Compound 2, (S)-2-(2-methyl-1H-indol-3-yl)-N-(2-phenyl-1-(1-phenyl-1H-benzo[d]imidazol-2-yl)ethyl)acetamide] as the compound, how does the pEC50 read?
**A.** The pEC50 was 4.53.

**Q.** With `NC(=O)c1cc(-c2cc3sc(N4CCOCC4)nc3nc2[C@H](Cc2cc(F)cc(F)c2)NC(=O)Cn2nc(C(F)F)c3c2C(F)(F)CCC3(F)F)ccc1F` [Compound 3, (S)-5-(5-(1-(2-(3-(difluoromethyl)-4,4,7,7-tetrafluoro-4,5,6,7-tetrahydro-1H-indazol-1-yl)acetamido)-2-(3,5-difluorophenyl)ethyl)-2-morpholinothiazolo[4,5-b]pyridin-6-yl)-2-fluorobenzamide] as the compound, how does the pEC50 read?
**A.** The pEC50 was 6.79.

**Q.** How did the pEC50 turn out when `COCCOCCNc1nc2nc([C@H](Cc3cc(F)cc(F)c3)NC(=O)Cn3nc(C(F)F)c4c3C(F)(F)CCC4(F)F)c(-c3ccc(F)c(C(N)=O)c3)cc2s1` [Compound 4, (S)-5-(5-(1-(2-(3-(difluoromethyl)-4,4,7,7-tetrafluoro-4,5,6,7-tetrahydro-1H-indazol-1-yl)acetamido)-2-(3,5-difluorophenyl)ethyl)-2-((2-(2-methoxyethoxy)ethyl)amino)thiazolo[4,5-b]pyridin-6-yl)-2-fluorobenzamide] was run?
**A.** The pEC50 was 6.81.

**Q.** With `NC(=O)c1cc(-c2cc3sc(N4CCN(C5COC5)CC4)nc3nc2[C@H](Cc2cc(F)cc(F)c2)NC(=O)Cn2nc(C(F)F)c3c2C(F)(F)CCC3(F)F)ccc1F` [Compound 5] as the compound, how does the pEC50 read?
**A.** The pEC50 was 7.11.

**Q.** How did the pEC50 turn out when `CC(C)(O)CNc1nc2nc([C@H](Cc3cc(F)cc(F)c3)NC(=O)Cn3nc(C(F)F)c4c3C(F)(F)CCC4(F)F)c(-c3ccc(F)c(C(N)=O)c3)cc2s1` [Compound 6, (S)-5-(5-(1-(2-(3-(difluoromethyl)-4,4,7,7-tetrafluoro-4,5,6,7-tetrahydro-1H-indazol-1-yl)acetamido)-2-(3,5-difluorophenyl)ethyl)-2-((2-hydroxy-2-methylpropyl)amino)thiazolo[4,5-b]pyridin-6-yl)-2-fluorobenzamide] was run?
**A.** The pEC50 was 7.01.

**Q.** With `CN1CCN(c2nc3nc([C@H](Cc4cc(F)cc(F)c4)NC(=O)Cn4nc(C(F)F)c5c4C(F)(F)CCC5(F)F)c(-c4ccc(F)c(C(N)=O)c4)cc3s2)CC1` [Compound 7, (S)-5-(5-(1-(2-(3-(difluoromethyl)-4,4,7,7-tetrafluoro-4,5,6,7-tetrahydro-1H-indazol-1-yl)acetamido)-2-(3,5-difluorophenyl)ethyl)-2-(4-methylpiperazin-1-yl)thiazolo[4,5-b]pyridin-6-yl)-2-fluorobenzamide] as the compound, how does the pEC50 read?
**A.** The pEC50 was 6.90.

**Q.** `NC(=O)c1cc(-c2cc3sc(NCCN4CCOCC4)nc3nc2[C@H](Cc2cc(F)cc(F)c2)NC(=O)Cn2nc(C(F)F)c3c2C(F)(F)CCC3(F)F)ccc1F` [Compound 8, (S)-5-(5-(1-(2-(3-(difluoromethyl)-4,4,7,7-tetrafluoro-4,5,6,7-tetrahydro-1H-indazol-1-yl)acetamido)-2-(3,5-difluorophenyl)ethyl)-2-((2-morpholinoethyl)amino)thiazolo[4,5-b]pyridin-6-yl)-2-fluorobenzamide] was tested. Which pEC50 did it give?
**A.** The pEC50 was 6.79.

**Q.** How did the pEC50 turn out when `NC(=O)c1cc(-c2cc3sc(NC4CCOC4)nc3nc2[C@H](Cc2cc(F)cc(F)c2)NC(=O)Cn2nc(C(F)F)c3c2C(F)(F)CCC3(F)F)ccc1F` (stereo partly drawn) [Compound 9, 5-(5-((S)-1-(2-(3-(difluoromethyl)-4,4,7,7-tetrafluoro-4,5,6,7-tetrahydro-1H-indazol-1-yl)acetamido)-2-(3,5-difluorophenyl)ethyl)-2-((tetrahydrofuran-3-yl)amino)thiazolo[4,5-b]pyridin-6-yl)-2-fluorobenzamide] was run?
**A.** Its pEC50 is 6.58.

**Q.** `NC(=O)c1cc(-c2cc3sc(NC4COC4)nc3nc2[C@H](Cc2cc(F)cc(F)c2)NC(=O)Cn2nc(C(F)F)c3c2C(F)(F)CCC3(F)F)ccc1F` [Compound 10, (S)-5-(5-(1-(2-(3-(difluoromethyl)-4,4,7,7-tetrafluoro-4,5,6,7-tetrahydro-1H-indazol-1-yl)acetamido)-2-(3,5-difluorophenyl)ethyl)-2-(oxetan-3-ylamino)thiazolo[4,5-b]pyridin-6-yl)-2-fluorobenzamide] was tested. Which pEC50 did it give?
**A.** The pEC50 was 6.42.

**Q.** `CC1(O)CN(c2nc3nc([C@H](Cc4cc(F)cc(F)c4)NC(=O)Cn4nc(C(F)F)c5c4C(F)(F)CCC5(F)F)c(-c4ccc(F)c(C(N)=O)c4)cc3s2)C1` [Compound 11, (S)-5-(5-(1-(2-(3-(difluoromethyl)-4,4,7,7-tetrafluoro-4,5,6,7-tetrahydro-1H-indazol-1-yl)acetamido)-2-(3,5-difluorophenyl)ethyl)-2-(3-hydroxy-3-methylazetidin-1-yl)thiazolo[4,5-b]pyridin-6-yl)-2-fluorobenzamide] was tested. Which pEC50 did it give?
**A.** The pEC50 was 6.79.

**Q.** `COCCNc1nc2nc([C@H](Cc3cc(F)cc(F)c3)NC(=O)Cn3nc(C(F)F)c4c3C(F)(F)CCC4(F)F)c(-c3ccc(F)c(C(N)=O)c3)cc2s1` [Compound 12, (S)-5-(5-(1-(2-(3-(difluoromethyl)-4,4,7,7-tetrafluoro-4,5,6,7-tetrahydro-1H-indazol-1-yl)acetamido)-2-(3,5-difluorophenyl)ethyl)-2-((2-methoxyethyl)amino)thiazolo[4,5-b]pyridin-6-yl)-2-fluorobenzamide] was tested. Which pEC50 did it give?
**A.** The pEC50 was 6.80.

**Q.** `NC(=O)c1cc(-c2cc3sc(N4CC5(COC5)C4)nc3nc2[C@H](Cc2cc(F)cc(F)c2)NC(=O)Cn2nc(C(F)F)c3c2C(F)(F)CCC3(F)F)ccc1F` [Compound 13, (S)-5-(5-(1-(2-(3-(difluoromethyl)-4,4,7,7-tetrafluoro-4,5,6,7-tetrahydro-TH-indazol-1-yl)acetamido)-2-(3,5-difluorophenyl)ethyl)-2-(2-oxa-6-azaspiro[3.3]heptan-6-yl)thiazolo[4,5-b]pyridin-6-yl)-2-fluorobenzamide] was tested. Which pEC50 did it give?
**A.** The pEC50 was 6.90.

**Q.** With `NC(=O)c1cc(-c2cc3sc(O)nc3nc2[C@H](Cc2cc(F)cc(F)c2)NC(=O)Cn2nc(C(F)F)c3c2C(F)(F)CCC3(F)F)ccc1F` [Compound 15-1, (S)-5-(5-(1-(2-(3-(difluoromethyl)-4,4,7,7-tetrafluoro-4,5,6,7-tetrahydro-1H-indazol-1-yl)acetamido)-2-(3,5-difluorophenyl)ethyl)-2-hydroxythiazolo[4,5-b]pyridin-6-yl)-2-fluorobenzamide] as the compound, how does the pEC50 read?
**A.** The pEC50 was 6.50.

**Q.** `NC(=O)c1cc(-c2cc3scnc3nc2[C@H](Cc2cc(F)cc(F)c2)NC(=O)Cn2nc(C(F)F)c3c2C(F)(F)CCC3(F)F)ccc1F` [Compound 15-2, (S)-5-(5-(1-(2-(3-(difluoromethyl)-4,4,7,7-tetrafluoro-4,5,6,7-tetrahydro-1H-indazol-1-yl)acetamido)-2-(3,5-difluorophenyl)ethyl)thiazolo[4,5-b]pyridin-6-yl)-2-fluorobenzamide] was tested. Which pEC50 did it give?
**A.** Its pEC50 is 6.49.

**Q.** With `N#Cc1cc(-c2cc3scnc3nc2[C@H](Cc2cc(F)cc(F)c2)NC(=O)Cn2nc(C(F)F)c3c2C(F)(F)CCC3(F)F)ccc1F` [Compound 15E, (S)—N-(1-(6-(3-cyano-4-fluorophenyl)thiazolo[4,5-b]pyridin-5-yl)-2-(3,5-difluorophenyl)ethyl)-2-(3-(difluoromethyl)-4,4,7,7-tetrafluoro-4,5,6,7-tetrahydro-1H-indazol-1-yl)acetamide] as the compound, how does the pEC50 read?
**A.** The pEC50 was 5.58.

**Q.** With `O=C(Cn1nc(C(F)F)c2c1C(F)(F)CCC2(F)F)N[C@@H](Cc1cc(F)cc(F)c1)c1nc2ncsc2cc1-c1ccc(F)cc1` [Compound 16, (S)-2-(3-(difluoromethyl)-4,4,7,7-tetrafluoro-4,5,6,7-tetrahydro-1H-indazol-1-yl)-N-(2-(3,5-difluorophenyl)-1-(6-(4-fluorophenyl)thiazolo[4,5-b]pyridin-5-yl)ethyl)acetamide] as the compound, how does the pEC50 read?
**A.** Its pEC50 is 5.99.

**Q.** How did the pEC50 turn out when `O=C(Cn1nc(C(F)F)c2c1C(F)(F)CCC2(F)F)N[C@H](Cc1cc(F)cc(F)c1)c1nc2ncsc2cc1-c1ccc(F)cc1` [Compound 17, (R)-2-(3-(difluoromethyl)-4,4,7,7-tetrafluoro-4,5,6,7-tetrahydro-1H-indazol-1-yl)-N-(2-(3,5-difluorophenyl)-1-(6-(4-fluorophenyl)thiazolo[4,5-b]pyridin-5-yl)ethyl)acetamide] was run?
**A.** Its pEC50 is 5.10.

**Q.** `NC(=O)c1cc(-c2cc3sc(N4CCOCC4)nc3nc2C(Cc2cc(F)cc(F)c2)NC(=O)Cn2nc(C(F)F)c3c2C(F)(F)CCC3(F)F)ccc1F` (centres unmarked) [Compound 18, 5-(5-(1-(2-(3-(difluoromethyl)-4,4,7,7-tetrafluoro-4,5,6,7-tetrahydro-1H-indazol-1-yl)acetamido)-2-(3,5-difluorophenyl)ethyl)-2-morpholinothiazolo[4,5-b]pyridin-6-yl)-2-fluorobenzamide] was tested. Which pEC50 did it give?
**A.** Its pEC50 is 6.60.

**Q.** `Cc1cc(Nc2nc3nc(C(Cc4cc(F)cc(F)c4)NC(=O)Cn4nc(C(F)F)c5c4C(F)(F)CCC5(F)F)c(-c4ccc(F)c(C(N)=O)c4)cc3s2)[nH]n1` (centres unmarked) [Compound 19, 5-(5-(1-(2-(3-(difluoromethyl)-4,4,7,7-tetrafluoro-4,5,6,7-tetrahydro-1H-indazol-1-yl)acetamido)-2-(3,5-difluorophenyl)ethyl)-2-((3-methyl-1H-pyrazol-5-yl)amino)thiazolo[4,5-b]pyridin-6-yl)-2-fluorobenzamide] was tested. Which pEC50 did it give?
**A.** The pEC50 was 5.98.

**Q.** How did the pEC50 turn out when `CN(C)CCNc1nc2nc(C(Cc3cc(F)cc(F)c3)NC(=O)Cn3nc(C(F)F)c4c3C(F)(F)CCC4(F)F)c(-c3ccc(F)c(C(N)=O)c3)cc2s1` (centres unmarked) [Compound 20, 5-(5-(1-(2-(3-(difluoromethyl)-4,4,7,7-tetrafluoro-4,5,6,7-tetrahydro-TH-indazol-1-yl)acetamido)-2-(3,5-difluorophenyl)ethyl)-2-((2-(dimethylamino)ethyl)amino)thiazolo[4,5-b]pyridin-6-yl)-2-fluorobenzamide] was run?
**A.** The pEC50 was 6.52.
